Values quoted from earlier work in patent US8252778B2, “Highly fluorinated oils and surfactants and methods of making and using same” (University of Utah Research Foundation, priority 2006, dated 2012).

Target: sstr2 (Homo sapiens, UniProt P30874)
Sequence (P30874 whole entry, species assumed): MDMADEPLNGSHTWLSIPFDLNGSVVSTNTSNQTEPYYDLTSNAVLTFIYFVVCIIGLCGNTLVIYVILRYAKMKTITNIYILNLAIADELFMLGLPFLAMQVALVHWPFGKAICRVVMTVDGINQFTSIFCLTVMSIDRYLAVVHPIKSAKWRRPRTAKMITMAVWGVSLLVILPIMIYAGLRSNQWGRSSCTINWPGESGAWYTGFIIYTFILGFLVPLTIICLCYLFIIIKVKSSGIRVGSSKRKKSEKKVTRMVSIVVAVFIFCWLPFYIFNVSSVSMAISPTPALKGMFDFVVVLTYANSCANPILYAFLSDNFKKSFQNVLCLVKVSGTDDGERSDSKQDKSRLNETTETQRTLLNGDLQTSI

affinity and specificity for sstr2: high affinity and specificity
Structure (SMILES): C[C@@H](O)[C@@H]1NC(=O)[C@H](CCCCN)NC(=O)[C@@H](Cc2c[nH]c3ccccc23)NC(=O)[C@H](Cc2ccccc2)NC(=O)[C@@H](NC(=O)[C@H](N)Cc2ccccc2)CSSC[C@@H](C(=O)N[C@H](CO)[C@@H](C)O)NC1=O [octreotide, DPhe1-c[Cys2-Phe3-DTrp-4-Lys5-Thr6-Cys7]-Thr8-NH2]
